Experimental data: patent US5202314A, “10-thioethyl-steroids” (Roussel Uclaf, priority 1991, dated 1993)

Target: T1, aromatase (Homo sapiens, UniProt P11511)
T1 construct: The supernatant was then subjected to an ultracentrifugation stage (90 minutes, 105,000 g) to obtain the microsomal regulus; from tissue; host or cells: human placenta, microsomal fraction
T1 sequence (P11511 1-503): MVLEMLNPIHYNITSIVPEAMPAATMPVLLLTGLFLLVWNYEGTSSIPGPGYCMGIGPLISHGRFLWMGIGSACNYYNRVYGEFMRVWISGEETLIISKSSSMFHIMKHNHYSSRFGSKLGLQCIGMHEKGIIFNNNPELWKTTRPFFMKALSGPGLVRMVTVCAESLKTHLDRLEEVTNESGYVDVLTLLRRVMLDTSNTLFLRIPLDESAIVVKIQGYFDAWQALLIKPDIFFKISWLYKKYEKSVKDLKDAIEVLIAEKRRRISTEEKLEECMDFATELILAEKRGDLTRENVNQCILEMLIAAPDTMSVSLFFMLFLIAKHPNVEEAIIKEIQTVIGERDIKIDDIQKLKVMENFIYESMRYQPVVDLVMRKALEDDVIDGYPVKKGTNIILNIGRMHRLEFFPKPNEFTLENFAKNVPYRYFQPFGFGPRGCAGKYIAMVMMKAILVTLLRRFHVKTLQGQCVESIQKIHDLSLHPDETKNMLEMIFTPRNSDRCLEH
Assay: Inhibition of aromatase in human placental microsomes (tritiated water release from 1β-2β-3H-Androstenedione)
Type: biochemical
Conditions: 25 micrograms of proteins per test, substrate Androstenedione 500 nM, NADPH, 37° C., 10 minutes, read-out: IC50 (concentration of inhibitor necessary to decrease by 50% the enzymatic activity)
Procedure: Inhibition dependent on the concentration (measurement of IC50 =concentration of inhibitor necessary to reduce the enzymatic activity by 50%). Human placentas were used which were washed one hour at most after birth, perfused with physiological serum (5 liters) via the umbilical vein and then deep-frozen at -40° C.
(1) Obtaining the placental microsomes
The placentas were thawed at 4° C. and then homogenized (1:3) in a phosphate buffer 10 mM, pH=7.0; containing 100 millimoles of potassium chloride (KCl), 10 millimoles of dithiothreitol (DTT), 10 millimoles of ethylenediaminetetraacetic acid (EDTA), 40 millimoles of nicotinamide and 250 millimoles of sucrose. […]
The supernatant was then subjected to an ultracentrifugation stage (90 minutes, 105,000 g) to obtain the microsomal regulus. […] The protein concentration of the microsomal suspension was determined by the BRADFORD method BRADFORD M., Anal. Biochem., Vol. 72, (1976), p. […]
After centrifugation, 100 microliters of supernatant were taken from each tube and counted in the presence of a scintillating liquid. […] The inhibition obtained for each concentration of each inhibitor product of the invention was calculated as a percentage of the controls (arbitrary 100% , obtained in absence of any inhibitor). […]

Compound: CSCC[C@]12CCC(=O)C=C1[C@H](O)C[C@H]1[C@@H]3CCC(=O)[C@@]3(C)C[C@H]3O[C@]312 [Example 2, 9α, 11α-epoxy-10β-[2-methylthio-ethyl]-Δ^4-estrene-6β-ol-3,17-dione]
- IC50: 180 nM
